Laboratory results as given in patent US8691811B2, “Quinazolinone linked pyrrolo[2,1-c][1,4]benzodiazepine hybrids as potential anticancer agents and process for the preparation thereof” (Council of Scientific & Industrial Research, priority 2008, dated 2014).

How the values were obtained:
KB = assay: Tata protocol cytotoxicity (SRB, 48 h), KB; format: cell-based, human; settings: oral
Procedure: (§1) The C8-linked quinazolinone-PBD hybrids (5b, 5c, 5k, 5l, 5m) have been tested against eleven human tumour cell lines derived from seven cancer types (lung cancer, colon cancer, cervix, ovarian cancer, oral cancer, prostate cancer and breast cancer) as per Tata protocol. For each compound, dose response curves for individual cell lines have been measured at a minimum of five concentrations at 10 fold dilutions. A protocol of 48 h continuous drug exposure has been used, and a sulforhodamine B (SRB) protein assay was used to estimate cell viability or growth. Compounds 5b, 5c, 5k, 5l, 5m have been evaluated for their in vitro cytotoxicity in eleven cell lines from seven human cancer types of lung (Hop-62, A-549) colon (COLO-205) cervix (Si-Ha), ovary (A-2780), prostate (PC3) breast (MCF7, Zr-75-1), oral (DWD, GURAV, KB). The results are expressed as percent of cell growth determined relative to that of untreated control cells (Table-4).

Zr-75-1 = assay: Tata protocol cytotoxicity (SRB, 48 h), Zr-75-1; format: cell-based, human; settings: Zr-75-1, breast
Procedure: as §1

PC-3 = assay: Tata protocol cytotoxicity (SRB, 48 h), PC-3; format: cell-based, human; settings: PC-3, prostate
Procedure: as §1

[1] = test system: eleven human tumour cell lines; assay: Tata protocol in vitro cytotoxicity (SRB, 48 h), all cell lines; format: cell-based; settings: bound over all eleven cell lines, read-out: GI50 value against eleven cell lines in seven cell panels
Procedure: as §1

HOP-62 = assay: Tata protocol cytotoxicity (SRB, 48 h), HOP-62; format: cell-based, human; settings: HOP-62, lung
Procedure: as §1

[2] = test system: duplex-form calf thymus DNA (CT-DNA); assay: Thermal denaturation studies with calf thymus DNA; format: binding; settings: [PBD]:[DNA] molar ratio 1:5, CT-DNA 100 μM, ligand 20 μM, pH 7.00
Procedure: Compounds have been subjected to thermal denaturation studies with duplex-form calf thymus DNA (CT-DNA) using a modification of a reported procedure. Working solutions in aqueous buffer ([…] NaH2PO4/Na2HPO4, 1 mM Na2EDTA, pH 7.00+0.01). containing CT-DNA (100 μm in phosphate) and the PBD (20 μm) have been prepared by addition of concentrated PBD solutions in DMSO to obtain a fixed [PBD]/[DNA] molar ratio of 1:5. The DNA-PBD solutions have been incubated at 37° C. for 0 and 18 hrs prior to analysis. Samples have been monitored at 260 nm using a Beckman DU-800 spectrophotometer fitted with high performance temperature controller, and heated at 1° C. min^−1 in the 40-110° C. range. DNA helix→coil transition temperatures (Tm) have been obtained from the maxima in the d(A260)/dT derivative plots. Drug-induced alterations in DNA melting behavior are given by: ΔTm=Tm(DNA+PBD)−Tm(DNA alone), where the Tm value for the PBD-free CT-DNA is 68.5±0.01.
The DNA-binding for these novel C8-linked quinazolinone-PBD hybrids has been examined by thermal denaturation studies using calf thymus (CT) DNA. […] Data for 5b, 5c, 5d, and 5k, 5l, 5m and DC-81 are included in Table 5 for comparison.

DWD = assay: Tata protocol cytotoxicity (SRB, 48 h), DWD; format: cell-based, human; settings: oral
Procedure: as §1

[3] = test system: prostate cancer cell line (PC3); assay: Tata protocol cytotoxicity (SRB, 48 h), prostate panel; format: cell-based; settings: Homo sapiens; exposure period of at least 48 hrs; read-out: GI50, in vitro activity against prostate
Procedure: as §1

A-549 = assay: Tata protocol cytotoxicity (SRB, 48 h), A-549; format: cell-based, human
Procedure: as §1

GURAV = assay: Tata protocol cytotoxicity (SRB, 48 h), GURAV; format: cell-based, human; settings: oral
Procedure: as §1

[4] = test system: ovarian cancer cell line (A-2780); assay: Tata protocol cytotoxicity (SRB, 48 h), ovarian panel; format: cell-based; settings: Homo sapiens, A2780; exposure period of at least 48 hrs; read-out: GI50, in vitro activity against ovarian
Procedure: as §1

A-2780 = assay: Tata protocol cytotoxicity (SRB, 48 h), A-2780; format: cell-based, human
Procedure: as §1

Colo-205 = assay: Tata protocol cytotoxicity (SRB, 48 h), Colo-205; format: cell-based, human; settings: Colo-205, colon
Procedure: as §1

Si-Ha = assay: Tata protocol cytotoxicity (SRB, 48 h), Si-Ha; format: cell-based, human; settings: cervix
Procedure: as §1

MCF7 = assay: Tata protocol cytotoxicity (SRB, 48 h), MCF7; format: cell-based, human; settings: MCF7, breast
Procedure: as §1

[5] = test system: lung cancer cell lines (Hop-62, A-549); assay: Tata protocol cytotoxicity (SRB, 48 h), lung panel; format: cell-based; settings: Homo sapiens; range over the panel; exposure period of at least 48 hrs; read-out: GI50, in vitro activity against lung
Procedure: as §1

[6] = test system: colon cancer cell line (COLO-205); assay: Tata protocol cytotoxicity (SRB, 48 h), colon panel; format: cell-based; settings: Homo sapiens, exposure period of at least 48 hrs, read-out: GI50, in vitro activity against colon
Procedure: as §1

[7] = test system: breast cancer cell lines (MCF7, Zr-75-1); assay: Tata protocol cytotoxicity (SRB, 48 h), breast panel; format: cell-based; settings: Homo sapiens; range over the panel; exposure period of at least 48 hrs; read-out: IC50, in vitro activity against breast
Procedure: as §1

`COc1cc2c(cc1OCCCOc1ccc(-n3c(C)nc4ccccc4c3=O)cc1)N=C[C@@H]1CCCN1C2=O` [5b, 7-methoxy-8{-3-[4-(2-methyl-4-oxo-3,4-dihydro-3-quinazolinyl)phenoxy]propoxy}-(11aS)-1,2,3,11a-tetrahydro-5H-pyrrolo[2,1-c][1,4]benzodiazepine-5-one] was tested, and the GI50 (KB; Homo sapiens) was 150 nM, the GI50 (Zr-75-1; Homo sapiens) was 160 nM and the GI50 (PC-3; Homo sapiens) was 130 nM. For the same compound, the GI50 [1] was < 1830 nM, the GI50 (HOP-62; Homo sapiens) was 160 nM and the “ΔTm after incubation at 37° C. for 0 h” value [2] was 1.0 °C. The “ΔTm after incubation at 37° C. for 18 h” value [2] was 2.0 °C, the GI50 (DWD; Homo sapiens) was 110 nM and the GI50 [3] was 130 nM. It also gave a GI50 (A-549; Homo sapiens, A549, A-549, lung) of 1480 nM, a GI50 (GURAV; Homo sapiens) of 130 nM and a GI50 [4] of 100 nM. The GI50 (A-2780; Homo sapiens, A2780, A-2780, ovary) was 100 nM, the GI50 (Colo-205; Homo sapiens) was 140 nM and the GI50 (Si-Ha; Homo sapiens, SiHa) was 160 nM. It also gave a GI50 (MCF7; Homo sapiens) of 1830 nM, a GI50 [5] of 160 to 1480 nM and a GI50 [6] of 140 nM. For the same compound, the IC50 [7] was 160 to 1830 nM.

Compound `COc1cc2c(cc1OCCCCOc1ccc(-n3c(C)nc4ccccc4c3=O)cc1)N=C[C@@H]1CCCN1C2=O` [5c, 7-methoxy-8{-4-[4-(2-methyl-4-oxo-3,4-dihydro-3-quinazolinyl)phenoxy]butoxy-}-(11aS)-1,2,3,11a-tetrahydro-5H-pyrrolo[2,1-c][1,4]benzodiazepine-5-one] has a GI50 (KB) of 1980 nM, a GI50 (Zr-75-1) of 1970 nM and a GI50 (PC-3) of 170 nM. For the same compound, the GI50 (HOP-62) was 1950 nM, the “ΔTm after incubation at 37° C. for 0 h” value [2] was 1.0 °C and the “ΔTm after incubation at 37° C. for 18 h” value [2] was 2.1 °C. The GI50 (DWD) was 1600 nM, the GI50 (A-549; A-549, lung) was 1930 nM and the GI50 (GURAV) was 1950 nM. The GI50 (A-2780; A-2780, ovary) was 160 nM, the GI50 (Colo-205) was 1810 nM and the GI50 (Si-Ha) was 1910 nM. For the same compound, the GI50 (MCF7) was 2300 nM.

`COc1cc2c(cc1OCCCOc1ccc(-n3c(/C=C/c4ccccc4)nc4ccccc4c3=O)cc1)N=C[C@@H]1CCCN1C2=O` [5k, 7-methoxy-8-{3-[(4-4-oxo-2-[(E)-2-phenyl-1-ethenyl]-3,4-dihydro-3-quinazolinylphenyl)oxy]propoxy}-(11aS)-1,2,3,11a-tetrahydro-5H-pyrrolo[2,1-c][1,4]benzodiazepine-5-one] showed a GI50 (KB) of 1780 nM, a GI50 (Zr-75-1) of 170 nM and a GI50 (PC-3) of 160 nM. For the same compound, the GI50 (HOP-62) was 2150 nM, the “ΔTm after incubation at 37° C. for 0 h” value [2] was 1.0 °C and the “ΔTm after incubation at 37° C. for 18 h” value [2] was 2.0 °C. For the same compound, the GI50 (DWD) was 140 nM, the GI50 (A-549; A-549, lung) was 1880 nM and the GI50 (GURAV) was 1850 nM. The GI50 (A-2780; A-2780, ovary) was 140 nM, the GI50 (Colo-205) was 2120 nM and the GI50 (Si-Ha) was 2000 nM. It also gave a GI50 (MCF7) of 2030 nM.

Compound `COc1cc2c(cc1OCCCCOc1ccc(-n3c(/C=C/c4ccccc4)nc4ccccc4c3=O)cc1)N=C[C@@H]1CCCN1C2=O` [5l, 7-methoxy-8-{4-[(4-4-oxo-2-[(E)-2-phenyl-1-ethenyl]-3,4-dihydro-3-quinazolinylphenyl)oxy]butoxy}-(11aS)-1,2,3,11a-tetrahydro-5H-pyrrolo[2,1-c][1,4]benzodiazepine-5-one] has a GI50 (KB) of 2070 nM, a GI50 (Zr-75-1) of 2440 nM and a GI50 (PC-3) of 1910 nM. The GI50 (HOP-62) was 2330 nM, the “ΔTm after incubation at 37° C. for 0 h” value [2] was 1.2 °C and the “ΔTm after incubation at 37° C. for 18 h” value [2] was 2.3 °C. For the same compound, the GI50 (DWD) was 160 nM, the GI50 (A-549; A-549, lung) was 2390 nM and the GI50 (GURAV) was 1930 nM. It also gave a GI50 (A-2780; A-2780, ovary) of 160 nM, a GI50 (Colo-205) of 2230 nM and a GI50 (Si-Ha) of 2190 nM.

In the case of `COc1cc2c(cc1OCCCCCOc1ccc(-n3c(/C=C/c4ccccc4)nc4ccccc4c3=O)cc1)N=C[C@@H]1CCCN1C2=O` [5m, 7-methoxy-8-{5-[(4-4-oxo-2-[(E)-2-phenyl-1-ethenyl]-3,4-dihydro-3-quinazolinylphenyl)oxy]pentyloxy}-(11aS)-1,2,3,11a-tetrahydro-5H-pyrrolo[2,1-c][1,4]benzodiazepine-5-one], the GI50 (KB) is reported as 2150 nM, the GI50 (Zr-75-1) is reported as 2090 nM and the GI50 (PC-3) is reported as 1830 nM. For the same compound, the GI50 (HOP-62) was 2310 nM, the “ΔTm after incubation at 37° C. for 0 h” value [2] was 1.1 °C and the “ΔTm after incubation at 37° C. for 18 h” value [2] was 2.1 °C. It also gave a GI50 (DWD) of 170 nM, a GI50 (A-549; A-549, lung) of 2620 nM and a GI50 (GURAV) of 1820 nM. It also gave a GI50 (A-2780; A-2780, ovary) of 150 nM, a GI50 (Colo-205) of 2000 nM and a GI50 (Si-Ha) of 2080 nM. For the same compound, the GI50 (MCF7) was 2500 nM.

With `COc1cc2c(cc1O)N=CC1CCCN1C2=O` (stereo not drawn) [DC-81, reference compound] the “ΔTm after incubation at 37° C. for 0 h” value [2] was 0.3 °C and the “ΔTm after incubation at 37° C. for 18 h” value [2] was 0.7 °C.
